Test results reported in US20230159667A1, “BIOCOMPATIBLE CARRIER FORMULATION FOR APPLICATIONS IN PLANT PROTECTION AND PLANT GROWTH STIMULATION OR IN COSMETICS AND PERSONAL CARE ON THE BASIS OF MODIFIED STARCH” (Amynova Polymers GmbH, priority 2020, published 2023).
Where two headings read alike, the source gives them in different places.

Test: Active ingredient remaining on foliage after rainfall
[1] = sprayed with the invention as adjuvant vs fungicide alone, 27 mm rainfall 2009, 24 mm 2010

Row | Compound | rain fastness on leaves (residues remaining on foliage after rainfall) | rain fastness on leaves (residues remaining on foliage after rainfall) [1]
1 | COc1ccc(C(=CC(=O)N2CCOCC2)c2ccc(Cl)cc2)cc1OC [dimethomorph] | Improved rain fastness | 
2 | O=[N+]([O-])c1cc(C(F)(F)F)c(Cl)c([N+](=O)[O-])c1Nc1ncc(C(F)(F)F)cc1Cl [fluazinam] |  | Improved rain fastness
3 | Mancozeb |  | Improved rain fastness
